Assay results published in patent publication US10030020B2, “Spirocycle compounds and methods of making and using same” (Abide Therapeutics, Inc., priority 2016, dated 2018).

Legend:
Format in all cases: biochemical
ABHD6 = ABHD6 (Mus musculus (Mouse), UniProt Q8R2Y0); test: In vitro competitive activity-based protein profiling (mouse brain membrane fraction or cell lysates), ABHD6 band; conditions: mouse proteome; for inhibition at 1 µM: read-out: ABHD6 % Inh 1 μM (mouse); for IC50: competitive ABPP
Chain of ABHD6 (Q8R2Y0 whole entry): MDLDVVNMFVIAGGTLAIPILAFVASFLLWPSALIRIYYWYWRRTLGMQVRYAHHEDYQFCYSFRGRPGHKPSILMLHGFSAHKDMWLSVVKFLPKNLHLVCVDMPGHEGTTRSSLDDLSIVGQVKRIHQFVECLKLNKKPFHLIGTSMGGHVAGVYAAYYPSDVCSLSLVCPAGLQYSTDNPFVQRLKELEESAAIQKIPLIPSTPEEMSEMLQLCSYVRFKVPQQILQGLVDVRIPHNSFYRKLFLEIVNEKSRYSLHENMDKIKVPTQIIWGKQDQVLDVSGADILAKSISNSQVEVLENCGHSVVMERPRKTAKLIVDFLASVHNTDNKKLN
Protocol: (§1) In Vitro Competitive Activity-Based Protein Profiling.
(§2) Proteomes (mouse brain membrane fraction or cell lysates) (50 μL, 1.0 mg/mL total protein concentration) were preincubated with varying concentrations of inhibitors at 37° C. After 30 min, FP—Rh (1.0 μL, 50 μM in DMSO) was added and the mixture was incubated for another 30 min at 37° C. Reactions were quenched with SDS loading buffer (50 μL-4×) and run on SDS-PAGE. Following gel imaging, serine hydrolase activity was determined by measuring fluorescent intensity of gel bands corresponding to MAGL, ABHD6 and FAAH using ImageJ 1.43u software.

FAAH = FAAH (Mus musculus (Mouse), UniProt O08914); test: In vitro competitive activity-based protein profiling (mouse brain membrane fraction or cell lysates), FAAH band; conditions: mouse proteome; for inhibition at 1 µM: read-out: FAAH % Inh 1 μM (mouse); for IC50: competitive ABPP
Chain of FAAH (O08914 whole entry): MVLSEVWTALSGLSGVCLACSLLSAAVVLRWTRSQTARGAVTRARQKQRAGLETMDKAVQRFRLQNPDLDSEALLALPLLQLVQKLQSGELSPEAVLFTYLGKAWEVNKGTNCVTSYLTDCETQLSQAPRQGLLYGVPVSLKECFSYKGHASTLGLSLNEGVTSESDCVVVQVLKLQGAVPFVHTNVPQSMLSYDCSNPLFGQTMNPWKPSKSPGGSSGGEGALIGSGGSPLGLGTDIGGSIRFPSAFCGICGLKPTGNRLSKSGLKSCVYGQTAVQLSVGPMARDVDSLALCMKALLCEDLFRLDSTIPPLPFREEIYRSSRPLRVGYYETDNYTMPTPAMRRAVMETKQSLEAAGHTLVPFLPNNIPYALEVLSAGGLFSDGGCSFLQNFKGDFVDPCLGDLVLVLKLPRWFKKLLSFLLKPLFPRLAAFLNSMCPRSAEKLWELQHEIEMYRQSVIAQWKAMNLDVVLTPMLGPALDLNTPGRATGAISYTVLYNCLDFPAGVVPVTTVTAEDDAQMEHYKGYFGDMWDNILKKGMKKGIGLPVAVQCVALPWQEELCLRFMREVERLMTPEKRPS
Protocol: as §1, §2

MAGL = MAGL (Mus musculus (Mouse), UniProt O35678); test: In vitro competitive activity-based protein profiling (mouse brain membrane fraction or cell lysates), MAGL band; conditions: mouse proteome; for inhibition at 1 µM: read-out: MAGL % Inh 1 μM (mouse); for IC50: competitive ABPP
Chain of MAGL (O35678 whole entry): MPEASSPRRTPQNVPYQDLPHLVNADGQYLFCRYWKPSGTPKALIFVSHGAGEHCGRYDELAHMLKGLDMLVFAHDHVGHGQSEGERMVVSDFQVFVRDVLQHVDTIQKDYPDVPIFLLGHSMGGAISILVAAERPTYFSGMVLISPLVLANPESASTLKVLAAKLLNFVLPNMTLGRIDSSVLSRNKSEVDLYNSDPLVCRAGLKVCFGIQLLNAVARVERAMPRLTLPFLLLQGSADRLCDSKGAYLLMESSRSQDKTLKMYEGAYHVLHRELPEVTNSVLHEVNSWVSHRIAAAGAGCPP
Protocol: as §1
Proteomes (mouse brain membrane fraction or cell lysates) (50 μL, 1.0 mg/mL total protein concentration) were preincubated with varying concentrations of inhibitors at 37° C. After 30 min, FP—Rh (1.0 μL, 50 μM in DMSO) was added and the mixture was incubated for another 30 min at 37° C. Reactions were quenched with SDS loading buffer (50 μL-4×) and run on SDS-PAGE.

| SMILES | inhibition at 1 µM (ABHD6) | IC50 (ABHD6) | inhibition at 1 µM (FAAH) | IC50 (FAAH) | inhibition at 1 µM (MAGL) | IC50 (MAGL) |
| --- | --- | --- | --- | --- | --- | --- |
| O=C(OC(C(F)(F)F)C(F)(F)F)N1CCC2(CCCN2Cc2cccc(N3CCC(F)(F)CC3)c2Cl)CC1 [Example 111, 1,1,1,3,3,3-Hexafluoropropan-2-yl 1-(2-chloro-3-(4,4-difluoropiperidin-1-yl)benzyl)-1,8-diazaspiro[4.5]decane-8-carboxylate] | < 25% | > 1000 nM | < 25% | > 1000 nM | > 75% | < 100 nM |
| O=C(OC(C(F)(F)F)C(F)(F)F)N1CCC2(CCCN2Cc2cccc(N3CC4COCC4C3)c2Cl)CC1 (centres unmarked) [Example 112, 1,1,1,3,3,3-Hexafluoropropan-2-yl 1-(2-chloro-3-(tetrahydro-1H-furo[3,4-c]pyrrol-5(3H)-yl)benzyl)-1,8-diazaspiro[4.5]decane-8-carboxylate] | < 25% | > 1000 nM | < 25% | > 1000 nM | > 75% | < 100 nM |
| CS(=O)(=O)N1CCN(c2cccc(CN3CCCC34CCN(C(=O)OC(C(F)(F)F)C(F)(F)F)CC4)c2Cl)CC1 [Example 113, 1,1,1,3,3,3-Hexafluoropropan-2-yl 1-(2-chloro-3-(4-(methylsulfonyl)piperazin-1-yl)benzyl)-1,8-diazaspiro[4.5]decane-8-carboxylate] | < 25% | > 1000 nM | < 25% | > 1000 nM | > 75% | < 100 nM |
| CC(=O)N1CCN(c2cccc(CN3CCCC34CCN(C(=O)OC(C(F)(F)F)C(F)(F)F)CC4)c2Cl)CC1 [Example 114, 1,1,1,3,3,3-Hexafluoropropan-2-yl 1-(3-(4-acetylpiperazin-1-yl)-2-chlorobenzyl)-1,8-diazaspiro[4.5]decane-8-carboxylate] | 25 to 75% | > 1000 nM | < 25% | > 1000 nM | > 75% | < 100 nM |
| O=C(OC(C(F)(F)F)C(F)(F)F)N1CCC2(CCCN2Cc2cccc(N3CCN(C4CC4)CC3)c2Cl)CC1 [Example 115, 1,1,1,3,3,3-Hexafluoropropan-2-yl 1-(2-chloro-3-(4-cyclopropylpiperazin-1-yl)benzyl)-1,8-diazaspiro[4.5]decane-8-carboxylate] | < 25% | > 1000 nM | < 25% | > 1000 nM | > 75% |  |
| CCN1CCN(c2cccc(CN3CCCC34CCN(C(=O)OC(C(F)(F)F)C(F)(F)F)CC4)c2Cl)CC1 [Example 116, 1,1,1,3,3,3-Hexafluoropropan-2-yl 1-(2-chloro-3-(4-ethylpiperazin-1-yl)benzyl)-1,8-diazaspiro[4.5]decane-8-carboxylate] | < 25% | > 1000 nM | < 25% | > 1000 nM | > 75% | < 100 nM |
| O=C(OC(C(F)(F)F)C(F)(F)F)N1CCC2(CCCN2Cc2cccc(N3CCC4(CCOCC4)C3)c2Cl)CC1 [Example 117, 1,1,1,3,3,3-Hexafluoropropan-2-yl 1-(2-chloro-3-(8-oxa-2-azaspiro[4.5]decan-2-yl)benzyl)-1,8-diazaspiro[4.5]decane-8-carboxylate] | < 25% | > 1000 nM | < 25% | > 1000 nM | > 75% |  |
| O=C(OC(C(F)(F)F)C(F)(F)F)N1CCC2(CCCN2Cc2ccc3c(c2)OCCO3)CC1 [Example 126, 1,1,1,3,3,3-Hexafluoropropan-2-yl 1-(2,3-dihydro-1,4-benzodioxin-6-ylmethyl)-1,8-diazaspiro[4.5]decane-8-carboxylate] | 25 to 75% | > 1000 nM | < 25% | > 1000 nM | > 75% | < 100 nM |
| O=C(OC(C(F)(F)F)C(F)(F)F)N1CCC2(CCCN2Cc2ccc(N3CCOCC3)c(Cl)c2)CC1 [Example 127, 1,1,1,3,3,3-Hexafluoropropan-2-yl 1-(3-chloro-4-morpholinobenzyl)-1,8-diazaspiro[4.5]decane-8-carboxylate] | 25 to 75% | > 1000 nM | < 25% | > 1000 nM | > 75% |  |
| O=C(OC(C(F)(F)F)C(F)(F)F)N1CCC2(CCCN2Cc2ccc(Cl)c(N3CCOCC3)c2)CC1 [Example 131, 1,1,1,3,3,3-Hexafluoropropan-2-yl 1-(4-chloro-3-morpholinobenzyl)-1,8-diazaspiro[4.5]decane-8-carboxylate] | < 25% | > 1000 nM | < 25% | > 1000 nM | > 75% | < 100 nM |
| Cc1cc(CN2CCC3(CCN(C(=O)OC(C(F)(F)F)C(F)(F)F)CC3)C2)ccc1Cl [Example 135, 1,1,1,3,3,3-Hexafluoropropan-2-yl 2-(4-chloro-3-methylbenzyl)-2,8-diazaspiro[4.5]decane-8-carboxylate] | ≥ 75% | 100 to 1000 nM | < 25% | > 1000 nM | > 75% | < 100 nM |
| Cc1ccc(CN2CCC3(CCN(C(=O)OC(C(F)(F)F)C(F)(F)F)CC3)C2)cc1Cl [Example 136, 1,1,1,3,3,3-Hexafluoropropan-2-yl 2-(3-chloro-4-methylbenzyl)-2,8-diazaspiro[4.5]decane-8-carboxylate] | ≥ 75% | 100 to 1000 nM | < 25% | > 1000 nM | > 75% | 100 to 1000 nM |
| O=C(OC(C(F)(F)F)C(F)(F)F)N1CCC2(CCN(Cc3ccc4c(c3)OCCO4)C2)CC1 [Example 137, 1,1,1,3,3,3-Hexafluoropropan-2-yl 2-((2,3-dihydrobenzo[b][1,4]dioxin-6-yl)methyl)-2,8-diazaspiro[4.5]decane-8-carboxylate] | ≥ 75% | < 100 nM | < 25% | > 1000 nM | > 75% | 100 to 1000 nM |
| O=C(OC(C(F)(F)F)C(F)(F)F)N1CCC2(CCN(Cc3ccc(N4CCOCC4)c(Cl)c3)C2)CC1 [Example 138, 1,1,1,3,3,3-Hexafluoropropan-2-yl 2-(3-chloro-4-morpholinobenzyl)-2,8-diazaspiro[4.5]decane-8-carboxylate] | ≥ 75% | < 100 nM | < 25% | > 1000 nM | > 75% |  |
| O=C(OC(C(F)(F)F)C(F)(F)F)N1CCC2(CCN(Cc3ccc(N4CCCC4)c(Cl)c3)C2)CC1 [Example 139, 1,1,1,3,3,3-Hexafluoropropan-2-yl 2-(3-chloro-4-(pyrrolidin-1-yl)benzyl)-2,8-diazaspiro[4.5]decane-8-carboxylate] | ≥ 75% | 100 to 1000 nM | < 25% | > 1000 nM | > 75% | 100 to 1000 nM |
| O=C(OC(C(F)(F)F)C(F)(F)F)N1CCC2(CCN(Cc3ccc(N4CCOCC4)c(C(F)(F)F)c3)C2)CC1 [Example 140, 1,1,1,3,3,3-Hexafluoropropan-2-yl 2-(4-morpholino-3-(trifluoromethyl)benzyl)-2,8-diazaspiro[4.5]decane-8-carboxylate] | ≥ 75% | 100 to 1000 nM | < 25% | > 1000 nM | > 75% | < 100 nM |
